PMC4301037, “Identification and Structure–Function Analysis of Subfamily Selective G Protein-Coupled Receptor Kinase Inhibitors” (ACS Chemical Biology, 2014)

How the values were obtained:
[1] = biological target: T1, bovine GRK5 (Bos taurus, UniProt P43249); test: Primary DSF inhibitor screen, GRK5; type: binding; conditions: 10 μM compound; for ΔTm, primary screen, GRK5 / ΔTm at 10 µM: 2 μM kinase, relative to DMSO control; for ΔTm at 10 µM: read-out: ΔTm, primary screen, GRK5
T1 construct: when using full-length kinases as the receptor[37] instead of isolated kinase domains; made in house

[2] = biological target: T2, PKA (Mus musculus, UniProt P05132); test: PKA inhibition assay (ADP-Glo, CREBtide, 100 μM ATP); type: biochemical; conditions: logarithm of IC50 (−3.3 corresponds to 0.5 mM, footnote c); 438 nM PKA, 100 μM ATP, CREBtide; read-out: PKA log IC50 (converted)
T2 construct: His tag (inferred from pET15b vector and Ni-NTA column) (N); host or cells: E. coli Rosetta(DE3)pLysS

[3] = biological target: T3, GRK2 (Homo sapiens, UniProt P25098, S670A); test: DSF retest (confirmation), GRK2; type: binding
T3 construct: made in house
T3 sequence (P25098 1-689 S670A): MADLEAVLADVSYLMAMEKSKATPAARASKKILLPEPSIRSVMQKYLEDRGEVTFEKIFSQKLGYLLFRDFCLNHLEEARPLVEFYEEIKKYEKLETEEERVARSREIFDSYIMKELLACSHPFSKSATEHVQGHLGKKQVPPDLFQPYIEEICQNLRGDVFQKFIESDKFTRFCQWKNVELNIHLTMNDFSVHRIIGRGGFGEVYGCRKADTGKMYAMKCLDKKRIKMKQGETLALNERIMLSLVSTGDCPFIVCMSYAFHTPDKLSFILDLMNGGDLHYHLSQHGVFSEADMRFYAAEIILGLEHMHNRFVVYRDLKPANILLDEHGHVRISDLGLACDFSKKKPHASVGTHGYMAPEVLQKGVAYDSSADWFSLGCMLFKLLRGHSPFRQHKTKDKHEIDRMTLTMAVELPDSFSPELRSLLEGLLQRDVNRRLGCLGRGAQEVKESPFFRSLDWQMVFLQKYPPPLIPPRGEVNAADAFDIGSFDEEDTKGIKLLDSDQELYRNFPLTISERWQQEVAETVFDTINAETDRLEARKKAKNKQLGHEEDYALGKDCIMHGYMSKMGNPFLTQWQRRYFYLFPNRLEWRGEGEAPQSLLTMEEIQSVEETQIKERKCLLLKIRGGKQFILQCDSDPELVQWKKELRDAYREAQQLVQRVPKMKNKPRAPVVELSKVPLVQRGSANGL

[4] = biological target: T4, protein kinase A (PKA) (Mus musculus, UniProt P05132); test: DSF retest (confirmation), PKA; type: binding
T4 construct: His tag (inferred from pET15b vector and Ni-NTA column) (N); host or cells: E. coli Rosetta(DE3)pLysS
Description: Fourteen compounds (Figure 1a–c), including all GRK2 hits except staurosporine, and the most stabilizing pyrrolopyrimidine-containing compounds were obtained from GSK and retested using DSF on GRKs representing each vertebrate subfamily (GRK1, 2, and 5) (Table 1). […] The ability of these compounds to shift the Tm of the related AGC family kinase member protein kinase A (PKA) was also assessed (Table 1). In no case was ΔTm greater for PKA than for one of the tested GRKs. […]. There was no correlation for GRK1 (Figure 2c).
DSF was conducted using a ThermoFluor plate reader (Johnson & Johnson) in a buffer containing 20 mM HEPES, pH 7.0, 5 mM MgCl2, 2 mM DTT, and 1 mM CHAPS with 0.2 mg mL^–1 final concentration of GRK or PKA and 100 μM 1-anilinonaphthalene-8-sulfonic acid.[14]

[5] = biological target: T5, GRK5 (Bos taurus, UniProt P43249); test: DSF retest (confirmation), GRK5; type: binding, bovine
T5 construct: when using full-length kinases as the receptor[37] instead of isolated kinase domains; made in house

[6] = biological target: T5, GRK5; test: In vitro phosphorylation assay (tubulin, 5 μM ATP), GRK5; type: biochemical, bovine; conditions: read-out: GRK5 log IC50 (converted)
[7] = biological target: T6, GRK2 (Bos taurus, UniProt P21146, S670A); test: In vitro phosphorylation assay (tubulin, 5 μM ATP), GRK2; type: biochemical, bovine; conditions: read-out: GRK2 log IC50 (converted)
T6 construct: made in house
T6 sequence (P21146 1-689 S670A): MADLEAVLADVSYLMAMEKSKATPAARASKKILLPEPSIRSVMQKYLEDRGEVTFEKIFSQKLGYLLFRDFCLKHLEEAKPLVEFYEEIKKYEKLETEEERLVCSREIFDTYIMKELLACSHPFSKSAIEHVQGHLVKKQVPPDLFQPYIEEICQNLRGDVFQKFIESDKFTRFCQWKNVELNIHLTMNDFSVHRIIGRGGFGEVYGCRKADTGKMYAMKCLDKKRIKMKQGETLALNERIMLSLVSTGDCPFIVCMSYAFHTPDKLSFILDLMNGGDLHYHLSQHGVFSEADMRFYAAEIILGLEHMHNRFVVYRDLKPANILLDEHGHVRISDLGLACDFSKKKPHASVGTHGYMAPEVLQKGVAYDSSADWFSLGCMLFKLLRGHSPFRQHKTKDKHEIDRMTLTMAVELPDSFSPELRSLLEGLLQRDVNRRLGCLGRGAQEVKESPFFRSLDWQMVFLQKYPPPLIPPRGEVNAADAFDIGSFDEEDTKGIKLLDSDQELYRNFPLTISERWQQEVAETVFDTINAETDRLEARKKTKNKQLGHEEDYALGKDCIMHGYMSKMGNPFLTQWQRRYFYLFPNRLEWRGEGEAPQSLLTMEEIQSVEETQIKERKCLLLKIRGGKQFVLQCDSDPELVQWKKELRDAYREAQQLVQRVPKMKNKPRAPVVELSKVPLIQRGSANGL

[8] = biological target: T7, human GRK2S670A (Homo sapiens, UniProt P25098, S670A); test: Primary DSF (differential scanning fluorimetry) inhibitor screen, GRK2; type: binding
T7 construct: when using full-length kinases as the receptor[37] instead of isolated kinase domains; made in house
T7 sequence (P25098 1-689 S670A): T3 sequence (P25098 1-689 S670A)

[9] = relative to intrinsic melting point of the kinase

T1 sequence (P43249 whole entry, the tested form may be a part): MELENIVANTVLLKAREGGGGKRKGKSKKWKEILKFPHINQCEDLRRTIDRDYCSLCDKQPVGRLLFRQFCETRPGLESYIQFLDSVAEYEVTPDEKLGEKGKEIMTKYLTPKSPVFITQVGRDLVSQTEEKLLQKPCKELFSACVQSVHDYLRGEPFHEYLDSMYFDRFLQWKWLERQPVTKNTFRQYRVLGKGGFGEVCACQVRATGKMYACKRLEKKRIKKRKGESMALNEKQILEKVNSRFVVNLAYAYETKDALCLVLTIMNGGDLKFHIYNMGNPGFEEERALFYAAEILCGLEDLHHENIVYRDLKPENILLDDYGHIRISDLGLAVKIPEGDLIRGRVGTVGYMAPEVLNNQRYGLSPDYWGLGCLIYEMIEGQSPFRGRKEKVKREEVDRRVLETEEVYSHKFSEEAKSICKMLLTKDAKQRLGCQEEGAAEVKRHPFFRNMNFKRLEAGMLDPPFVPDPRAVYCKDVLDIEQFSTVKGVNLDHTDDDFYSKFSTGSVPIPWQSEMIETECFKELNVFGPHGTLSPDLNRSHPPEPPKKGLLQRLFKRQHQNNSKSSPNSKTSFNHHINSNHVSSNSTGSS
T5 sequence (P43249 whole entry, the tested form may be a part): as above

Row | Compound | ΔTm, primary screen, GRK5 [1] | ΔTm at 10 µM [1] | also measured
1 | CCCN1CCC(Oc2cc(Nc3nc(Nc4cccc(F)c4C(N)=O)c4cc[nH]c4n3)c(OC)cc2Cl)CC1 [GSK1713088A] | 7.4 °C | 7.37 °C | rank in the primary screen, GRK5 ([1]; rank ordering of compounds in primary DSF screen): 11; IC50 [2]: > 501 µM; GRK2 Tm ([3]; 0.2 mg mL^–1 kinase): 44.2 °C; GRK2 ΔTm [3, 9]: 6.7 °C; PKA Tm ([4]; 0.2 mg mL^–1 kinase): 45.8 °C; PKA ΔTm [4, 9]: 0.4 °C; GRK5 Tm ([5]; 0.2 mg mL^–1 kinase): 40.3 °C; GRK5 ΔTm [5, 9]: 13.6 °C; IC50 [6]: 3.16 µM; IC50 [7]: 6.31 µM
2 | Nc1cc2ncnc(Nc3cccc(Br)c3)c2cc1N [4-[(3-Bromophenyl)amino]-6,7-diaminoquinazoline] | 6.16 °C | – | –
3 | O=C1Nc2ccccc2/C1=C1\CCc2cc(O)ccc21 [GR105659X] | – | 3.25 °C | –
4 | CC(C)=Cc1cccc2c1C(=NNc1ccc(S(N)(=O)=O)cc1)C(=O)N2 [GW396574X] | – | 2.08 °C | –
5 | O=C1NC(=O)C(c2c[nH]c3ccccc23)=C1c1c[nH]c2ccccc12 [BIM 4, bisindolylmaleimide IV] | 3.11 °C | – | –
6 | Cn1cc(C=C2C(=O)Nc3cccnc32)c2ccccc21 [GW441756X] | – | 2.82 °C | –
7 | O=c1cc(-c2ccc(O)cc2)oc2cc(O)cc(O)c12 [Apigenin, 4',5,7-Trihydroxyflavone] | – | 2.9 °C | –
8 | O=C1Nc2ccccc2C1=Cc1c(Cl)[nH]c2ccccc12 [3-(2-Chloro-3-indolylmethylene)-1,3-dihydroindol-2-one] | 2.98 °C | – | –
9 | CS(=O)(=O)CCNCc1ccc(-c2ccc3ncnc(Nc4ccc(OCc5ccccc5)c(Cl)c4)c3c2)o1 [GW574783B] | – | 4.25 °C | –
10 | CC(C)n1cnc2c(Nc3cccc(Cl)c3)nc(NCCO)nc21 [Compound 52, 2-(2-Hydroxyethylamino)-6-(3-chloroanilino)-9-isopropylpurine] | 5.53 °C | – | –
11 | NS(=O)(=O)c1ccc(NN=C2C(=O)Nc3ccc(C(=O)NCc4ccncc4)cc32)cc1 [GW300657X] | – | 3.89 °C | –
12 | CN[C@@H]1C[C@H]2O[C@@](C)([C@@H]1OC)n1c3ccccc3c3c4c(c5c6ccccc6n2c5c31)C(=O)NC4 [Staurosporine] | 12 °C | 11.9 °C | ΔTm, primary screen, GRK2 ([8]; 10 μM compound, 2 μM kinase, relative to DMSO control): 5.4 °C; ΔTm at 10 µM ([8]; read-out: ΔTm, primary screen, GRK2, 10 μM compound, 2 μM kinase, relative to DMSO control): 5.37 °C
13 | CS(=O)(=O)CCNCc1ccc(-c2ccc3ncnc(Nc4ccc(OCc5ccccc5)c(Br)c4)c3c2)o1 [GW580496A] | – | 4.33 °C | –
14 | Brc1c(Br)c(Br)c2[nH]nnc2c1Br [4,5,6,7-Tetrabromobenzo-triazole] | 8.22 °C | – | –
15 | NS(=O)(=O)c1ccc(NC=C2C(=O)Nc3ccc4ncsc4c32)cc1 [GW589933X] | – | 4.8 °C | –
16 | CC(C)(C)c1nc2c3ccc(F)cc3c3c(=O)[nH]ccc3c2[nH]1 [JAK Inhibitor I, 2-(1,1-Dimethylethyl)-9-fluoro-3,6-dihydro-7H-benz[h]-imidaz[4,5-f]isoquinolin-7-one] | 8.13 °C | – | –
17 | CCCN1CCC=C(c2ccc(Nc3nc(Nc4ccccc4C(N)=O)c4cc[nH]c4n3)c(C)c2)C1 [GSK994854A] | – | 4.92 °C | –
18 | Cc1cncc2cccc(S(=O)(=O)N3CCCNC[C@@H]3C)c12 [H-1152, (S)-(+)-2-Methyl-1-[(4-methyl-5-isoquinolinyl)sulfonyl]homopiperazine] | 5.95 °C | – | –
19 | CN(C)CCCn1cc(C2=C(c3c[nH]c4ccccc34)C(=O)NC2=O)c2ccccc21.Cl [BIM I, 2-[1-(3-Dimethylaminopropyl)-1H-indol-3-yl]-3-(1H-indol-3-yl)maleimide, HCl] | 6.45 °C | – | –

Now from value to compound, other results behind:

Row | ΔTm, primary screen, GRK5 [1] | ΔTm at 10 µM [1] | Compound | also measured
20 | – | 3.19 °C | Nc1ncnc2occ(-c3ccc(NC(=O)Nc4cc(C(F)(F)F)ccc4F)cc3)c12 [GW770249X] | –
21 | – | 4.07 °C | COC(=O)Nc1nc2ccc(S(=O)(=O)c3ccc(NC(=O)Nc4cc(C(F)(F)F)ccc4F)cc3)cc2[nH]1 [GW680908A] | –
22 | – | 2.03 °C | O=C(Nc1n[nH]c2nc(-c3ccco3)c(Br)cc12)C1CC1 [SB-739452] | –
23 | – | 3.27 °C | O=S(=O)(CCNCc1ccc(-c2ccc3ncnc(Nc4ccc(OCc5cccc(F)c5)c(Cl)c4)c3c2)o1)c1ccccc1 [GW633459A] | –
24 | 5.48 °C | – | O=C1NC(=NCc2cccs2)S/C1=C\c1ccc2ncccc2c1 [RO-3306] | –
25 | – | 4.96 °C | Nc1ncnc2occ(-c3ccc(NC(=O)Nc4cccc(C(F)(F)F)c4)cc3)c12 [GW795493X] | –
26 | – | 4.43 °C | NC(=O)c1sc(-n2cnc3ccc(C(F)(F)F)cc32)cc1OCc1ccccc1Br [GW853606X] | –
27 | – | 3.97 °C | CN1CCN(CCCNc2nc3ccc(Oc4ccc(NC(=O)Nc5cc(C(F)(F)F)ccc5F)cc4)cc3[nH]2)CC1 [GW700494A] | –
28 | 2.19 °C | – | O=C1c2ccccc2-c2n[nH]c3cccc1c23 [JNK Inhibitor II, Anthra[1,9-cd]pyrazol-6(2H)-one] | –
29 | – | 3.36 °C | CC(=O)Nc1cccc(C#Cc2cncnc2Nc2ccc(OCc3cccc(F)c3)c(Cl)c2)c1 [GW703087X] | –
30 | – | 2.68 °C | NC(=O)c1cccc(Nc2nccc(Nc3cccc(F)c3)n2)c1 [GW759710A] | –
31 | – | 3.24 °C | O=C(O)c1ccc2c3c1cccc3c(=O)n1c3ccccc3nc21 [STO-609] | –
